ChEMBL document CHEMBL3593175, “Bicyclic [3.3.0]-Octahydrocyclopenta[c]pyrrolo Antagonists of Retinol Binding Protein 4: Potential Treatment of Atrophic Age-Related Macular Degeneration and Stargardt Disease” (J Med Chem, 2015)

Assays:
[1] = target: T1, Retinol-binding protein 4 (Homo sapiens, UniProt P02753); experiment: Displacement of [3H]-retinol from RBP4 (unknown origin) by scintillation proximity assay
[2] = target: T1, Retinol-binding protein 4; experiment: Inhibition of retinol-induced interaction of bacterially expressed MBP-tagged RBP4 (unknown origin) with Eu3+ cryptate labeled TTR by HTRF assay

| Structure (SMILES) | IC50 [1] [µM] | IC50 [2] [µM] |
| --- | --- | --- |
| O=C(O)c1cnnc(N2C[C@H]3C[C@@H](c4ccccc4C(F)(F)F)C[C@H]3C2)c1 | 0.023 | 0.437 |
| Cc1cc(C(=O)O)nc(N2C[C@H]3C[C@@H](c4cc(F)ccc4C(F)(F)F)C[C@H]3C2)n1 | 0.0463 | 0.0334 |
| Cc1cc(C(=O)O)nc(N2C[C@H]3C[C@@H](c4cccnc4C(F)(F)F)C[C@H]3C2)n1 | 0.0311 | 0.719 |
| Cc1ccc(N2C[C@H]3C[C@@H](c4ccccc4C(F)(F)F)C[C@H]3C2)nc1C(=O)O | 0.584 | 4.91 |
| O=C(O)c1cccc(N2C[C@H]3C[C@@H](c4ccccc4C(F)(F)F)C[C@H]3C2)c1 | 0.0832 | 3.96 |
| O=C(O)c1cncc(N2C[C@H]3C[C@@H](c4ccccc4C(F)(F)F)C[C@H]3C2)c1 | > 3 |  |
